Source: PMC4457528, “Identification of Novel Small Molecule Inhibitors of Oncogenic RET Kinase” (PLoS ONE, 2015)
Like-named read-outs stand apart in the source and are kept apart here.

Assays:
Experiment in all cases: KinomeScan kinase panel, single concentration 10 µM
Format in all cases: binding
KinomeScan kinase panel [1] = molecular target: T1, KinomeScan kinase panel (Homo sapiens, UniProt P07948); settings: LYN, 10 µM; read-out: score (%)
T1 construct: purchased DiscoveRx (KinomeScan)

KinomeScan kinase panel [2] = molecular target: T2, KinomeScan kinase panel (Homo sapiens, UniProt P07949, M918T); settings: read-out: score (%)
T2 construct: purchased DiscoveRx (KinomeScan)

KinomeScan kinase panel [3] = molecular target: T3, KinomeScan kinase panel (Homo sapiens, UniProt P24941); settings: CDK2, 10 µM
T3 construct: purchased DiscoveRx (KinomeScan)

KinomeScan kinase panel [4] = molecular target: T4, KinomeScan kinase panel (Homo sapiens, UniProt P36888, K663Q); settings: FLT3(K663Q), 10 µM; read-out: score (%)
T4 construct: purchased DiscoveRx (KinomeScan)
T4 sequence (P36888 27-993 K663Q): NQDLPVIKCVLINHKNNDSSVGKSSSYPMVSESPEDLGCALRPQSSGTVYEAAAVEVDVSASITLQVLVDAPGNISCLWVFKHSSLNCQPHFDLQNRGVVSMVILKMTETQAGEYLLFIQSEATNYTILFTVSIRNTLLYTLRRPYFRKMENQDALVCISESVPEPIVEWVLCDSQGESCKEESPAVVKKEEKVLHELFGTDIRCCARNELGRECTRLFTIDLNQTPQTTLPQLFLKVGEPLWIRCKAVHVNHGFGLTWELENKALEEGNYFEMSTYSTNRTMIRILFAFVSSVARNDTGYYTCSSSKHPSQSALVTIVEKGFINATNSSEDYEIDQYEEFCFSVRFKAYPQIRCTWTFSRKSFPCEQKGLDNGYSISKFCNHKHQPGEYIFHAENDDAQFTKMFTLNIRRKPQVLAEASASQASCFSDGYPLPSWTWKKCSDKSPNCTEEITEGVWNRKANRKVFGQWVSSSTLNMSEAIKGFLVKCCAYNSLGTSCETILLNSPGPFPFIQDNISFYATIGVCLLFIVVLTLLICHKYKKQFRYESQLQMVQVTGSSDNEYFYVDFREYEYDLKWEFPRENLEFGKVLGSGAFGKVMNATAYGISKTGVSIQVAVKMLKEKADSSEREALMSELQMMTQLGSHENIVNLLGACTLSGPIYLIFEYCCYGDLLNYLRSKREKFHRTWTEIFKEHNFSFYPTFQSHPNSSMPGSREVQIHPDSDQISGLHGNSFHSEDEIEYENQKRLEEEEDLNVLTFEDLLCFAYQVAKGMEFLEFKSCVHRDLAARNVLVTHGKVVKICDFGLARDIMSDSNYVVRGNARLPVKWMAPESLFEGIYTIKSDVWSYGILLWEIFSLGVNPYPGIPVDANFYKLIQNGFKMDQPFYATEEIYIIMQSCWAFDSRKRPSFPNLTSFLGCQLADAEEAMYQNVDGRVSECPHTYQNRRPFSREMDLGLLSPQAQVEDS

KinomeScan kinase panel [5] = molecular target: T5, KinomeScan kinase panel (Homo sapiens, UniProt P53667); settings: LIMK1, 10 µM; read-out: score (%)
T5 construct: purchased DiscoveRx (KinomeScan)

KinomeScan kinase panel [6] = molecular target: T6, KinomeScan kinase panel (Homo sapiens, UniProt Q02156); settings: 10 µM, read-out: score (%)
T6 construct: purchased DiscoveRx (KinomeScan)
T6 sequence (Q02156 1-737): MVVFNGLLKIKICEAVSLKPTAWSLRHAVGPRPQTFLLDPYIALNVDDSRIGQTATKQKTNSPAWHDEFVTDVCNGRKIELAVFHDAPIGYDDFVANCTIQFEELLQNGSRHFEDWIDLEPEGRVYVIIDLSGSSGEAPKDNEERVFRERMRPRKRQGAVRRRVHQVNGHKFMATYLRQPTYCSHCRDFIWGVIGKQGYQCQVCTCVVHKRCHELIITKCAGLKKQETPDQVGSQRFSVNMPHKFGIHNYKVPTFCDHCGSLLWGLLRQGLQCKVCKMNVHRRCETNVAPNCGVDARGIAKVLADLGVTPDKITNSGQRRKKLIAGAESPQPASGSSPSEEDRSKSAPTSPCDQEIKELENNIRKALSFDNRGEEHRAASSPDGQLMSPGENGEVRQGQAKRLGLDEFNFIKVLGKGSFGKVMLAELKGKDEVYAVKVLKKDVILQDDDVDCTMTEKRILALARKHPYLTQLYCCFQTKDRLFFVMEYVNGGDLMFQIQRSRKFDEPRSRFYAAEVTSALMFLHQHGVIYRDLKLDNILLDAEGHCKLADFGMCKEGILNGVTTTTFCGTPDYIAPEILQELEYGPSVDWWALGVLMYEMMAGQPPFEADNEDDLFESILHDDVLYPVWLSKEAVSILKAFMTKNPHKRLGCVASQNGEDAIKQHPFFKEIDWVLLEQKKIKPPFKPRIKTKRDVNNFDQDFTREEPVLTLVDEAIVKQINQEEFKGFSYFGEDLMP

KinomeScan kinase panel [7] = molecular target: T7, KinomeScan kinase panel (Homo sapiens, UniProt Q13470); settings: read-out: score (%)
T7 construct: purchased DiscoveRx (KinomeScan)
T7 sequence (Q13470 1-666): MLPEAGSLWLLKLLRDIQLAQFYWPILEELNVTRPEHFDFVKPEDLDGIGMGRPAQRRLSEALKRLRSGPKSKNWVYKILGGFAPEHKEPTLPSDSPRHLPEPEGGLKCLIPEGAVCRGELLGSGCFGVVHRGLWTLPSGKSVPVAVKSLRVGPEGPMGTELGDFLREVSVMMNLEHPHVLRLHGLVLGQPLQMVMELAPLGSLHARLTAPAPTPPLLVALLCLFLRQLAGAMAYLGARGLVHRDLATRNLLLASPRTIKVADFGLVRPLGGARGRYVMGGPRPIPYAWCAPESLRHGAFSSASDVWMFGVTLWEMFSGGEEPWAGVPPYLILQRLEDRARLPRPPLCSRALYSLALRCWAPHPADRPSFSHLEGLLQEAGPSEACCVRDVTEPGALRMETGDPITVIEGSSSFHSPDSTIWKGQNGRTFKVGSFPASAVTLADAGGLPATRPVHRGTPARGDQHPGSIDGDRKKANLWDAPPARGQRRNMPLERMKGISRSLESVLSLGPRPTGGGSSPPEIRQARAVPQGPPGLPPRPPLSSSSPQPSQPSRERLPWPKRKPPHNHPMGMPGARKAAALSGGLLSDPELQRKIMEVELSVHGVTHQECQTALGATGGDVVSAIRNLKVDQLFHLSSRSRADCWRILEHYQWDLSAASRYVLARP

KinomeScan kinase panel [8] = molecular target: T8, KinomeScan kinase panel (Homo sapiens, UniProt Q13705); settings: ACVR2B, 10 µM
T8 construct: purchased DiscoveRx (KinomeScan)

KinomeScan kinase panel [9] = molecular target: T9, KinomeScan kinase panel (Homo sapiens, UniProt Q9H4B4); settings: read-out: score (%)
T9 construct: purchased DiscoveRx (KinomeScan)

KinomeScan kinase panel [10] = molecular target: T10, KinomeScan kinase panel (Homo sapiens, UniProt Q9UK32); settings: 10 µM
T10 construct: purchased DiscoveRx (KinomeScan)
T10 sequence (Q9UK32 whole entry): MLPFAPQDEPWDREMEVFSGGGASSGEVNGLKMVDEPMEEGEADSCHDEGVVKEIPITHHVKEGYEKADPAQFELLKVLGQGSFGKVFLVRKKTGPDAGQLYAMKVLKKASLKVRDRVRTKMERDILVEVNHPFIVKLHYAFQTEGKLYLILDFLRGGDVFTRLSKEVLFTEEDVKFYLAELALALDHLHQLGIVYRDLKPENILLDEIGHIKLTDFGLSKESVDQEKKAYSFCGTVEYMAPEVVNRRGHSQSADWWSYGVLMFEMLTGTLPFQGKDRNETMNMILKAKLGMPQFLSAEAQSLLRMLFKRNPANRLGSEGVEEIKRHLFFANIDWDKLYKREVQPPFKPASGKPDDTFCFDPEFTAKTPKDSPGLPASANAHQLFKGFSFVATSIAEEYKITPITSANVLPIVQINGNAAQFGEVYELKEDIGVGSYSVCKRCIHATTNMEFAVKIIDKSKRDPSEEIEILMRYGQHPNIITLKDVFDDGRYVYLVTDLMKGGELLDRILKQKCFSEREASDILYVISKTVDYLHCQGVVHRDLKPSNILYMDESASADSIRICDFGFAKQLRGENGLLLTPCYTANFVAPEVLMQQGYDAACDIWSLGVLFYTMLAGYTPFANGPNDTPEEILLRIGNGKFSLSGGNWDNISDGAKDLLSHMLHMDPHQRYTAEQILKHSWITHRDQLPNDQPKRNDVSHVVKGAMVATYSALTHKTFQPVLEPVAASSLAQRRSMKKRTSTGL

T1 sequence (P07948 whole entry): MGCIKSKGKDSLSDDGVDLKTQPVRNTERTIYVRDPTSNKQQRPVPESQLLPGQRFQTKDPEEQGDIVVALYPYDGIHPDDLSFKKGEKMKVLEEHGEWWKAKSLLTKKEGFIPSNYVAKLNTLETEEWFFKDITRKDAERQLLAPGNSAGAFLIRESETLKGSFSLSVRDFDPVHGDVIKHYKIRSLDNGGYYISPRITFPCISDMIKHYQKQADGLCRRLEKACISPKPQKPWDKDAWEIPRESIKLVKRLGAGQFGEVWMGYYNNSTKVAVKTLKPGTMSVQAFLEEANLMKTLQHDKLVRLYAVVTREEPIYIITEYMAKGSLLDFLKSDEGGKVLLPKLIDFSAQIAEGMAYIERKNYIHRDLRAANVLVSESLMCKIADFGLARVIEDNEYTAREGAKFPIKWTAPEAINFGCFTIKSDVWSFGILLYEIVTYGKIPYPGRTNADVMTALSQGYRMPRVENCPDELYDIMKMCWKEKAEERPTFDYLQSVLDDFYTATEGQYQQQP
T8 sequence (Q13705 19-512): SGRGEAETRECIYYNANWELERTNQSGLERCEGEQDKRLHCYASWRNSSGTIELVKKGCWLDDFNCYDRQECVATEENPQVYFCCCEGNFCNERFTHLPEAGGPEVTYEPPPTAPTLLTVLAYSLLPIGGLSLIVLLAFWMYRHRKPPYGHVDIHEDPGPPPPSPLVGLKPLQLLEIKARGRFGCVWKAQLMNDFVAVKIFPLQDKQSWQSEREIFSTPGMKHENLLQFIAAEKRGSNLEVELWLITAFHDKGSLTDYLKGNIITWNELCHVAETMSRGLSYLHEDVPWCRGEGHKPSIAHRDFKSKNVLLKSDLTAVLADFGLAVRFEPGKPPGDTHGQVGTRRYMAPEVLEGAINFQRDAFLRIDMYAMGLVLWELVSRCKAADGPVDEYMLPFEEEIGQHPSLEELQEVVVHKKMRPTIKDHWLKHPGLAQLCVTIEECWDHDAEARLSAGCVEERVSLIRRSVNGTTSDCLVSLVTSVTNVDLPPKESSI
T2 sequence (P07949 29-1114 M918T): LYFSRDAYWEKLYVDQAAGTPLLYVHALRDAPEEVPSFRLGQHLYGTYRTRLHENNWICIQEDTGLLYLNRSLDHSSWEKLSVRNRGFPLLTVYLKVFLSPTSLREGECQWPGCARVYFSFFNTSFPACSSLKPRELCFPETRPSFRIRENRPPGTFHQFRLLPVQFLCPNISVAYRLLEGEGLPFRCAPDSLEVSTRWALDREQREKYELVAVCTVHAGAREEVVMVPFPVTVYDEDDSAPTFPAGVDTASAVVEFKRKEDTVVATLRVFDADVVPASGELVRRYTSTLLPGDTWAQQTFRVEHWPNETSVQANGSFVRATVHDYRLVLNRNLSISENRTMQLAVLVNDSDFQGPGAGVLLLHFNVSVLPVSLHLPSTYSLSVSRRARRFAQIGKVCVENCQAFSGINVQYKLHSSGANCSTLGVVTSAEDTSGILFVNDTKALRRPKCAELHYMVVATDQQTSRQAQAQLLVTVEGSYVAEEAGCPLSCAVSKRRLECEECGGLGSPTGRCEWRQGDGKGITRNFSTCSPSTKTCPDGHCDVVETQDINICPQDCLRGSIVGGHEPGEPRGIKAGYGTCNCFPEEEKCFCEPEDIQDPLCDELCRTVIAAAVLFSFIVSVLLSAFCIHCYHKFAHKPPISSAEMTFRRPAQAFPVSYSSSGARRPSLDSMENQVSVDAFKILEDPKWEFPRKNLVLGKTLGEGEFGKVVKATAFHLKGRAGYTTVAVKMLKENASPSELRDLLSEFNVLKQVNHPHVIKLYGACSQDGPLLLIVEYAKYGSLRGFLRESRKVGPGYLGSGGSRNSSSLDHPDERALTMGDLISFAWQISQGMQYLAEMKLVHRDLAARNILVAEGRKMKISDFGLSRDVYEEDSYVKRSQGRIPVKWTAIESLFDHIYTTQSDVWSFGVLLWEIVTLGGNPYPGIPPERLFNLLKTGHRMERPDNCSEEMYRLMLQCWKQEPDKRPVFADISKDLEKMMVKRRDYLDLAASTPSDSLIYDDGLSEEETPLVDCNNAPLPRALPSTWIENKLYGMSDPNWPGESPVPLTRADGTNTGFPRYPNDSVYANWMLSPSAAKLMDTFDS
T5 sequence (P53667 whole entry): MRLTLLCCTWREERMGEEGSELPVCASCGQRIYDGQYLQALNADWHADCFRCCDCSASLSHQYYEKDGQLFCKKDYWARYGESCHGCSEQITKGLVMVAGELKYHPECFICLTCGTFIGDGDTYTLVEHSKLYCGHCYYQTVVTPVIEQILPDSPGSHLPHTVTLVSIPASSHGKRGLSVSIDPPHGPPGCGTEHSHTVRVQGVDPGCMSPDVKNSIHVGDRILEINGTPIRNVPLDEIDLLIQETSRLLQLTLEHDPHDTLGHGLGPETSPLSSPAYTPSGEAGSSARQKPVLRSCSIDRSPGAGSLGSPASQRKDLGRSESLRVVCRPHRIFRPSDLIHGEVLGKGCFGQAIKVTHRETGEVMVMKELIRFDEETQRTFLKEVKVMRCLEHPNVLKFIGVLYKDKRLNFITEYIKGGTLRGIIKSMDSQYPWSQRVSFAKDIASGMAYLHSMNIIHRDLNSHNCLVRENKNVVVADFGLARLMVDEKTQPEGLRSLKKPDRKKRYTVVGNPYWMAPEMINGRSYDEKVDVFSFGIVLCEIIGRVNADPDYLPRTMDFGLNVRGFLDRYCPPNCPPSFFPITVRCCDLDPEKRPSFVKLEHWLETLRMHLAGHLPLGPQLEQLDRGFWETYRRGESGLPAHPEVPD
T9 sequence (Q9H4B4 whole entry): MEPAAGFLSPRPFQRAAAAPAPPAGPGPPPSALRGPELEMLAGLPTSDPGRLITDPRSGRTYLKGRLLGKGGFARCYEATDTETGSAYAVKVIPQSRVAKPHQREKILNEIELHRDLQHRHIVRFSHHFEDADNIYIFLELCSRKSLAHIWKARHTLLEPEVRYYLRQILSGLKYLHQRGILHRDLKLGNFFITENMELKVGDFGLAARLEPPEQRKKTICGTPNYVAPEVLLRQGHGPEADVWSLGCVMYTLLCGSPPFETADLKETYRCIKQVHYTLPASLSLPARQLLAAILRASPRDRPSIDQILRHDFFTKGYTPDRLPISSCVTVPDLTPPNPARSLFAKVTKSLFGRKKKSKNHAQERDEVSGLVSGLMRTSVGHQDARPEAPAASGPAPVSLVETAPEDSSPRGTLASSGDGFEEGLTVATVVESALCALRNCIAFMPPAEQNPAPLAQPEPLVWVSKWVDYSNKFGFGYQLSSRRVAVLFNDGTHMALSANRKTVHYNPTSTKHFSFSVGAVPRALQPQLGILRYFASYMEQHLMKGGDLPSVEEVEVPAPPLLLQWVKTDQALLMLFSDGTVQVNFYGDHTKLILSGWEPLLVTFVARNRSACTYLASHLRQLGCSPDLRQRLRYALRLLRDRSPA

Row | remaining binding at 10 µM (KinomeScan kinase panel [2]; RET(M918T), 10 µM) | remaining binding at 10 µM (KinomeScan kinase panel [7]; TNK1, 10 µM) | SMILES | remaining binding at 10 µM (KinomeScan kinase panel [1]) | remaining binding at 10 µM (KinomeScan kinase panel [2]; kinase RET(M918T), 10 µM) | score (%) (KinomeScan kinase panel [3]) | remaining binding at 10 µM (KinomeScan kinase panel [4]) | remaining binding at 10 µM (KinomeScan kinase panel [5]) | remaining binding at 10 µM (KinomeScan kinase panel [6]; kinase PRKCE) | remaining binding at 10 µM (KinomeScan kinase panel [7]; kinase TNK1, 10 µM) | score (%) (KinomeScan kinase panel [8]) | remaining binding at 10 µM (KinomeScan kinase panel [9]; kinase PLK3, 10 µM) | score (%) (KinomeScan kinase panel [10]; kinase RSK4(Kin.Dom.1-N-terminal)) | score (%) (KinomeScan kinase panel [10]; kinase RSK4(Kin.Dom.2-C-terminal)) | remaining binding at 10 µM (KinomeScan kinase panel [6]; PRKCE) | remaining binding at 10 µM (KinomeScan kinase panel [9]; PLK3, 10 µM) | score (%) (KinomeScan kinase panel [10]; RPS6KA6(Kin.Dom.1)) | score (%) (KinomeScan kinase panel [10]; RPS6KA6(Kin.Dom.2)) | remaining binding at 10 µM (KinomeScan kinase panel [2]) | score (%) (KinomeScan kinase panel [10]; kinase RPS6KA6(Kin.Dom.1-N-terminal)) | score (%) (KinomeScan kinase panel [10]; kinase RPS6KA6(Kin.Dom.2-C-terminal))
1 | – | – | CCN1CCN(Cc2ccc(NC(=O)c3ccc(C)c(C#Cc4cccnc4)c3)cc2C(F)(F)F)CC1 [XMD15-44] | 0.05% | 0% | 10% | 0% | 3% | 54% | 0% | nb (Hits values higher than 30% were considered negative (no binding: nb)) | 90% | 47% | 6.8% | – | – | – | – | – | – | –
2 | 0% | 0.8% | CCN1CCN(Cc2ccc(NC(=O)c3ccc(C)c(/C=C/c4cnc5[nH]ccc5c4Cl)c3)cc2C(F)(F)F)CC1 [HG-6-63-01, (E)-3-(2-(4-chloro-1H-pyrrolo[2,3-b]pyridin-5-yl)vinyl)-N-(4-((4-ethylpiperazin-1-yl)methyl)-3-(trifluoromethyl)phenyl)-4-methylbenzamide] | 0.25% | – | nb (Hits values higher than 30% were considered negative (no binding: nb)) | 0% | 4.1% | – | – | nb (Hits values higher than 30% were considered negative (no binding: nb)) | – | – | – | > 30% | > 30% | nb (Hits values higher than 30% were considered negative (no binding: nb)) | nb (Hits values higher than 30% were considered negative (no binding: nb)) | – | – | –
3 | – | – | CCN1CCN(Cc2ccc(NC(=O)c3ccc(C)c(NC(=O)c4cncc(-c5cccs5)c4)c3)cc2C(F)(F)F)CC1 [ALW-II-41-27] | 0.1% | – | nb (Hits values higher than 30% were considered negative (no binding: nb)) | 1% | 23% | – | 7.7% | nb (Hits values higher than 30% were considered negative (no binding: nb)) | – | – | – | 5% | > 30% | – | – | 0% | nb (Hits values higher than 30% were considered negative (no binding: nb)) | nb (Hits values higher than 30% were considered negative (no binding: nb))
